Measurements: US9783510B2, “Small molecule mediated transcriptional induction of E-cadherin” (Vanderbilt University, priority 2014, dated 2017)

Tested on: E-cadherin expression in SW620 cells
Test: E-cadherin expression, in-cell Western (ICW), SW620 cells
Format: cell-based
Settings: for fold induction at 10 µM / EC50: Homo sapiens; for fold induction at 10 µM: SW-620, 24 h; for EC50: SW-620, inducement of E-cadherin expression in SW620 cells
Procedure: SW620 and H520 cells (5×10^4/100 μL) were seeded in a 96-well plate prior to treatment. Cells were treated with 10 μM concentration of synthesized compound in quadruplicate for 24 hours in RPMI 1640 supplemented medium and 100 μg/mL penicillin-streptomycin. The cells were then fixed with 100% methanol for 20 minutes at 4° C. The wells were then washed 2 times with PBS, permeabilized in 2% bovine serum albumin (BSA) and 0.2% TritonX-100 in PBS for 30 minutes at room temperature with gentle agitation, and blocked in LI-COR blocking buffer for 30 minutes at room temperature with gentle agitation. The cells were then incubated with the following primary antibodies: anti-E-Cadherin (1:500) and anti-α-Tubulin (1:1000) diluted in blocking buffer (1:1 dilution in PBS) for 2 hours at room temperature with gentle agitation. The cells were washed 4 times in PBS-T for 5 minutes each, and then incubated with the following secondary antibodies conjugated to a fluorescent entity: IRDye 800-conjugated goat anti-rabbit IgG (1:1000) and IRDye-700-conjugated goat anti-mouse IgG (1:2000) in blocking buffer (1:1 dilution in PBS) with gentle agitation for 1 h at room temperature. The cells were washed 4 times in PBS-T for 5 minutes each followed by a single wash with PBS. All liquid was removed from the wells and the plates were visualized and analyzed on the Odyssey IR imaging system (LI-COR Biosciences).
The assay was further optimized in the following manner. The cells were washed 2 times with PBS, fixed in 100% methanol at room temperature for 15 minutes, and again washed 2 times with PBS. The cells were then incubated with the following primary antibodies: anti-E-Cadherin (1:200) and anti-α-Tubulin (1:2000) diluted in ice cold 2% bovine serum albumin (BSA) and 0.2% TritonX-100 in PBS for 1 hour at room temperature with gentle agitation. The cells were washed 2 times in PBS and then incubated with the following secondary antibodies conjugated to a fluorescent entity: Licor 800-conjugated goat anti-rabbit IgG (1:2000) and IRDye-700-conjugated goat anti-mouse IgG (1:2000) in ice cold 2% BSA and 0.2% TritonX-100 in PBS with gentle agitation for 45 minutes at room temperature. The wells were washed 2 times in PBS, dried, and analyzed as previously mentioned.
N-Acetamidoalkyl-5-arylisoxazole-3-carboxamide analogs were synthesized as described above. Changes in expression level of E-cadherin in response to 10 μM compound in SW620 cells was determined in a cell-based functional assay as described above, and the data are shown in Table III. The compound number corresponds to the compound numbers used in Table II.
EC50 of inducement of E-cadherin expression in SW620 cells was determined in a cell-based functional assay as described above, and the data are shown in Table V. The compound number corresponds to the compound numbers used in Table IV.

[1] = change in expression level of E-cadherin in response to 10 μM compound, 24 hours, SW620 cells

Row | EC50 [µM] | SMILES | fold induction at 10 µM [1] | fold change SW620 ICW [1] [fold]
1 | 6.95 | O=C(NCCCNC(=O)c1cccc(C(F)(F)F)n1)c1cc(-c2cccs2)on1 [Compound 107, 5-(thiophen-2-yl)-N-(3-(6-(trifluoromethyl)picolinamido)propyl)isoxazole-3-carboxamide] | 4.15 | –
2 | – | Cn1cnc(C(=O)NCCCNC(=O)c2cc(-c3ccccc3)on2)c1 [Compound 116, N-(3-(1-methyl-1H-imidazole-4-carboxamido)propyl)-5-phenylisoxazole-3-carboxamide] | 2.6 | –
3 | – | O=C(NCCNC(=O)c1cc(-c2ccccc2)on1)c1cc(O)cc(Br)c1 [Compound 10, N-(2-(3-bromo-5-hydroxybenzamido)ethyl)-5-phenylisoxazole-3-carboxamide] | 2.35 | –
4 | – | O=C(NCCCNC(=O)c1cc(-c2cccs2)on1)c1ccc(O)cn1 [Compound 41, N-(3-(5-hydroxypicolinamido)propyl)-5-(thiophen-2-yl)isoxazole-3-carboxamide] | 2.77 | –
5 | – | O=C(NCCCNC(=O)c1ncco1)c1cc(-c2ccccc2)on1 [Compound 34, N-(3-(oxazole-2-carboxamido)propyl)-5-phenylisoxazole-3-carboxamide] | 2.77 | –
6 | – | O=C(NCCCNC(=O)c1cncnc1O)c1cc(-c2cccs2)on1 [Compound 42, N-(3-(4-hydroxypyrimidine-5-carboxamido)propyl)-5-(thiophen-2-yl)isoxazole-3-carboxamide] | 0.95 | –
7 | – | O=C(NCCCNC(=O)c1occc1-c1ccccc1)c1cc(-c2cccs2)on1 [Compound 100, N-(3-(3-phenylfuran-2-carboxamido)propyl)-5-(thiophen-2-yl)isoxazole-3-carboxamide] | 2.37 | –
8 | – | O=C(NCCCNC(=O)c1cc(-c2ccccc2)on1)c1ccc(O)c(O)c1 [Compound 36, N-(3-(3,4-dihydroxybenzamido)propyl)-5-phenylisoxazole-3-carboxamide] | 2.69 | –
9 | 5.64 | O=C(NCCCNC(=O)c1cc(-c2ccccc2)on1)c1cc(-c2ccccc2)ccn1 [Compound 119, 5-phenyl-N-(3-(4-phenylpicolinamido)propyl)isoxazole-3-carboxamide] | 4.13 | –
10 | – | O=C(NCCCNC(=O)c1cc(-c2ccccc2)on1)c1ccncc1 [Compound 31, N-(3-(isonicotinamido)propyl)-5-phenylisoxazole-3-carboxamide] | 3.51 | –
11 | – | Cc1nc(C(=O)NCCCNC(=O)c2cc(-c3cccs3)on2)no1 [Compound 80, 5-methyl-N-(3-(5-(thiophen-2-yl)isoxazole-3-carboxamido)propyl)-1,2,4-oxadiazole-3-carboxamide] | 2.83 | –
12 | – | O=C(NCCCNC(=O)c1cc(-c2ccccc2)on1)c1cccnc1 [Compound 56, N-(3-(nicotinamido)propyl)-5-phenylisoxazole-3-carboxamide] | 3.43 | –
13 | – | CC(C)(C)c1ccc(C(=O)NCCCNC(=O)c2cc(-c3ccccc3)on2)o1 [Compound 112, N-(3-(5-(tert-butyl)furan-2-carboxamido)propyl)-5-phenylisoxazole-3-carboxamide] | 3.86 | –
14 | – | N#Cc1ccnc(C(=O)NCCCNC(=O)c2cc(-c3ccccc3)on2)c1 [Compound 93, N-(3-(4-cyanopicolinamido)propyl)-5-phenylisoxazole-3-carboxamide] | 2.88 | –
15 | 4.12 | CCc1ccc(C(=O)NCCCNC(=O)c2cc(-c3cccs3)on2)o1 [Compound 101, N-(3-(5-ethylfuran-2-carboxamido)propyl)-5-(thiophen-2-yl)isoxazole-3-carboxamide] | 4.24 | –
16 | – | CCc1ccc(C(=O)NCCCNC(=O)c2cc(-c3ccccc3)on2)o1 [Compound 115, N-(3-(5-ethylfuran-2-carboxamido)propyl)-5-phenylisoxazole-3-carboxamide] | 3.83 | –

Row | EC50 [µM] | SMILES | fold induction at 10 µM [1] | fold change SW620 ICW [1] [fold]
17 | – | O=C(CCCC[C@@H]1SC[C@@H]2NC(=O)N[C@@H]21)Nc1ccc(C(=O)NCCCNC(=O)c2cc(-c3ccccc3)on2)cc1 [Compound 17, N-(3-(4-(5-((3aS,4S,6aR)-2-oxohexahydro-1H-thieno[3,4-d]imidazol-4-yl)pentanamido)benzamido)propyl)-5-phenylisoxazole-3-carboxamide] | 1.04 | –
18 | – | O=C(CCCC[C@@H]1SC[C@@H]2NC(=O)N[C@@H]21)Nc1cccc(C(=O)NCCCNC(=O)c2cc(-c3ccccc3)on2)c1 [Compound 18, N-(3-(3-(5-((3aS,4S,6aR)-2-oxohexahydro-1H-thieno[3,4-d]imidazol-4-yl)pentanamido)benzamido)propyl)-5-phenylisoxazole-3-carboxamide] | 1.05 | –
19 | – | Cc1cccnc1C(=O)NCCCNC(=O)c1cc(-c2ccccc2)on1 [Compound 71, N-(3-(3-methylpicolinamido)propyl)-5-phenylisoxazole-3-carboxamide] | 3.61 | –
20 | – | O=C(NCCCNC(=O)c1cc(-c2cccs2)on1)c1cc(Cl)ccn1 [Compound 40, N-(3-(4-chloropicolinamido)propyl)-5-(thiophen-2-yl)isoxazole-3-carboxamide] | 1.95 | –
21 | – | Cn1cnc(C(=O)NCCCNC(=O)c2cc(-c3cccs3)on2)c1 [Compound 103, N-(3-(1-methyl-1H-imidazole-4-carboxamido)propyl)-5-(thiophen-2-yl)isoxazole-3-carboxamide] | 3.02 | –
22 | – | O=C(NCCNC(=O)c1cc(-c2ccccc2)on1)c1ccc(O)c(O)c1 [Compound 9, N-(2-(3,4-dihydroxybenzamido)ethyl)-5-phenylisoxazole-3-carboxamide] | 1.89 | –
23 | – | Nc1ccc(C(=O)NCCCNC(=O)c2cc(-c3ccccc3)on2)cn1 [Compound 90, N-(3-(6-aminonicotinamido)propyl)-5-phenylisoxazole-3-carboxamide] | – | 2.50
24 | – | O=C(CCCC[C@@H]1SC[C@@H]2NC(=O)N[C@@H]21)NCCCNC(=O)c1cc(-c2ccccc2)on1 (stereo in doubt) [Compound 19, N-(3-(5-((3aS,4S,6aR)-2-oxohexahydro-1H-thieno[3,4-d]imidazol-4-yl)pentanamido)propyl)-5-phenylisoxazole-3-carboxamide] | 1.25 | –
25 | – | COC(=O)c1ccc(C(=O)NCCCNC(=O)c2cc(-c3ccccc3)on2)nc1 [Compound 66, methyl 6-((3-(5-phenylisoxazole-3-carboxamido)propyl)carbamoyl)nicotinate] | 1.55 | –
26 | – | O=C(NCCCNC(=O)c1ccc(C(F)(F)F)o1)c1cc(-c2ccccc2)on1 [Compound 89, 5-phenyl-N-(3-(5-(trifluoromethyl)furan-2-carboxamido)propyl)isoxazole-3-carboxamide] | 2.13 | –
27 | – | N[C@@H](Cc1c[nH]c2ccccc12)C(=O)NCCNC(=O)c1cc(-c2ccccc2)on1 [Compound 6, (S)—N-(2-(2-amino-3-(1H-indol-3-yl)propanamido)ethyl)-5-phenylisoxazole-3-carboxamide] | 0.92 | –
28 | – | O=C(NCCCNC(=O)c1cnn[nH]1)c1cc(-c2ccccc2)on1 [Compound 117, N-(3-(1H-1,2,3-triazole-5-carboxamido)propyl)-5-phenylisoxazole-3-carboxamide] | 3.71 | –
29 | – | CC(C)(C)c1ccc(C(=O)NCCCNC(=O)c2cc(-c3cccs3)on2)o1 [Compound 98, N-(3-(5-(tert-butyl)furan-2-carboxamido)propyl)-5-(thiophen-2-yl)isoxazole-3-carboxamide] | 3.65 | –
30 | – | O=C(NCCCNC(=O)c1cc2ccccc2o1)c1cc(-c2ccccc2)on1 [Compound 96, N-(3-(benzofuran-2-carboxamido)propyl)-5-phenylisoxazole-3-carboxamide] | 2.58 | –
31 | – | O=C(NCCCNC(=O)c1cnc2ccccn12)c1cc(-c2cccs2)on1 [Compound 73, N-(3-(imidazo[1,2-a]pyridine-3-carboxamido)propyl)-5-(thiophen-2-yl)isoxazole-3-carboxamide] | 3.04 | –
32 | 7.1 | O=C(NCCNC(=O)c1cc(-c2ccccc2)on1)c1cccnc1 [Compound 3, N-(2-(nicotinamido)ethyl)-5-phenylisoxazole-3-carboxamide] | 3.05 | –
